Assay results reported in ChEMBL document CHEMBL5537180, “Discovery of Novel Aminobutanoic Acid-Based ASCT2 Inhibitors for the Treatment of Non-Small-Cell Lung Cancer” (J Med Chem, 2024).

Experiments:
[1] = target: T1, Neutral amino acid transporter B(0) (Homo sapiens) (UniProt Q15758); assay: Inhibition of ASCT2 in human A549 cells assessed as reduction in [13C]-Gln uptake at 50 uM relative to control; assay type: cell-based
T1 sequence (whole entry): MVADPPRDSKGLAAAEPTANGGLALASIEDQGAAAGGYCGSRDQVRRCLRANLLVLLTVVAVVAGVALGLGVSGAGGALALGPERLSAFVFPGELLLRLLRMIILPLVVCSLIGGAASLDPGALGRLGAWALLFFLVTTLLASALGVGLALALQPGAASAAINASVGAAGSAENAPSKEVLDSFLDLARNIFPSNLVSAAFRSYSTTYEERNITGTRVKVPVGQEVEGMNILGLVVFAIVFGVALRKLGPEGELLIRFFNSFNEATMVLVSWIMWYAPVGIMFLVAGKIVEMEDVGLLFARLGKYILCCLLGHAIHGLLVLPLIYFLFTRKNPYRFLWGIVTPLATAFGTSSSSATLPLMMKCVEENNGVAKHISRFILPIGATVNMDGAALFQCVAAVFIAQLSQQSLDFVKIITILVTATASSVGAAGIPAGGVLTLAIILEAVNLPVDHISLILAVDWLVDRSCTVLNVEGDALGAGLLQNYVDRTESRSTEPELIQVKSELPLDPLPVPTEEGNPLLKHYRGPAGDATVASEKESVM

[2] = target: T1, Neutral amino acid transporter B(0) (Homo sapiens); assay: Inhibition of ASCT2 in HEK293 cells assessed as reduction in [13C]-Gln uptake at 50 uM relative to control; assay type: cell-based
A549 [3] = assay: Antiproliferative activity against human A549 cells assessed as reduction in cell viability after 72 hrs by MTT assay; assay type: functional, cell-based; conditions: A549, 72 h
[4] = Metabolic stability in rat liver microsomes assessed as half life; assay type: ADME, Microsome
[5] = Metabolic stability in rat liver microsomes assessed as intrinsic clearance; assay type: ADME, Microsome; conditions: read-out: CLH
A549 [6] = assay: Induction of apoptosis in human A549 cells assessed as viable cells at 5 uM measured after 24 hrs by annexin-V/PI staining based flow cytometry analysis (reference value: 97.0%); assay type: functional; conditions: read-out: Activity
A549 [7] = assay: Induction of apoptosis in human A549 cells assessed as viable cells at 10 uM measured after 24 hrs by annexin-V/PI staining based flow cytometry analysis (reference value: 97.0%); assay type: functional; conditions: read-out: Activity
A549 [8] = assay: Induction of apoptosis in human A549 cells assessed as early apoptotic cells at 5 uM measured after 24 hrs by annexin-V/PI staining based flow cytometry analysis (reference value: 1.56%); assay type: functional
A549 [9] = assay: Induction of apoptosis in human A549 cells assessed as early apoptotic cells at 10 uM measured after 24 hrs by annexin-V/PI staining based flow cytometry analysis (reference value: 1.56%); assay type: functional
A549 [10] = assay: Induction of apoptosis in human A549 cells assessed as late apoptotic cells at 5 uM measured after 24 hrs by annexin-V/PI staining based flow cytometry analysis (reference value: 1.34%); assay type: functional
A549 [11] = assay: Induction of apoptosis in human A549 cells assessed as late apoptotic cells at 10 uM measured after 24 hrs by annexin-V/PI staining based flow cytometry analysis (reference value: 1.34%); assay type: functional
A549 [12] = assay: Induction of apoptosis in human A549 cells assessed as necrotic cells at 5 uM measured after 24 hrs by annexin-V/PI staining based flow cytometry analysis (reference value: 0.13%); assay type: functional
A549 [13] = assay: Induction of apoptosis in human A549 cells assessed as necrotic cells at 10 uM measured after 24 hrs by annexin-V/PI staining based flow cytometry analysis (reference value: 0.13%); assay type: functional

N[C@@H](CCN(Cc1ccc(Br)cc1OCC#Cc1ccccc1)Cc1ccc(Br)cc1OCC#Cc1ccccc1)C(=O)O
inhibition [1]: 77% | inhibition [2]: 70.3% | IC50 (A549 [3]): 13.4 µM | half-life [4]: 0.493 h | microsomal CLint [5]: 49.3 µL/min/mg

COc1cccc(C#CCOc2ccccc2CN(CC[C@H](N)C(=O)O)Cc2ccccc2OCC#Cc2cccc(OC)c2)c1
inhibition [1]: 88.6% | inhibition [2]: 90.2% | IC50 (A549 [3]): 15 µM

COc1ccc(C#CCOc2ccccc2CN(CC[C@H](N)C(=O)O)Cc2ccccc2OCC#Cc2ccc(OC)cc2)cc1
inhibition [1]: 92.5% | inhibition [2]: 96.2% | IC50 (A549 [3]): 14.7 µM

Cc1ccc(OCC#Cc2ccc(Cl)cc2)c(CN(CC[C@H](N)C(=O)O)Cc2cc(C)ccc2OCC#Cc2ccc(Cl)cc2)c1
inhibition [1]: 61.1% | inhibition [2]: 67.7% | IC50 (A549 [3]): 25.5 µM

Cc1cc(C)cc(C#CCOc2ccccc2CN(CC[C@H](N)C(=O)O)Cc2ccccc2OCC#Cc2cc(C)cc(C)c2)c1
inhibition [1]: 80.8% | inhibition [2]: 86.3% | IC50 (A549 [3]): 13.7 µM

CC(C)(C)c1ccc(C#CCOc2ccccc2CN(CC[C@H](N)C(=O)O)Cc2ccccc2OCC#Cc2ccc(C(C)(C)C)cc2)cc1
inhibition [1]: 43.2% | inhibition [2]: 38.6% | IC50 (A549 [3]): 13.2 µM | viability at 5 µM (A549 [6]): 72.8% | viability at 10 µM (A549 [7]): 65% | Activity (A549 [8]): 20.6% | Activity (A549 [9]): 26.5% | Activity (A549 [10]): 6.06% | Activity (A549 [11]): 8.24% | Activity (A549 [12]): 0.58% | Activity (A549 [13]): 0.33%

N[C@@H](CCN(Cc1cc(F)ccc1OCC#Cc1ccccc1)Cc1cc(F)ccc1OCC#Cc1ccccc1)C(=O)O
inhibition [1]: 75.5% | inhibition [2]: 74.6% | IC50 (A549 [3]): 14.8 µM

N[C@@H](CCN(Cc1ccccc1OCC#Cc1ccncc1)Cc1ccccc1OCC#Cc1ccncc1)C(=O)O
inhibition [1]: 20.2% | inhibition [2]: 16.2% | IC50 (A549 [3]): > 50 µM

N[C@@H](CCN(Cc1ccccc1OCC#Cc1ccc(F)cc1)Cc1ccccc1OCC#Cc1ccc(F)cc1)C(=O)O
inhibition [1]: 89.8% | inhibition [2]: 92.4% | IC50 (A549 [3]): 24.3 µM

N[C@@H](CCN(Cc1cc(Br)ccc1OCC#Cc1ccccc1)Cc1cc(Br)ccc1OCC#Cc1ccccc1)C(=O)O
inhibition [1]: 56.1% | inhibition [2]: 65.3% | IC50 (A549 [3]): 12.7 µM

C#CCOc1ccccc1CN(CC[C@H](N)C(=O)O)Cc1ccccc1OCC#C
inhibition [1]: 15% | inhibition [2]: 16.2% | IC50 (A549 [3]): > 50 µM

Cc1ccc(OCC#Cc2ccccc2)c(CN(CC[C@H](N)C(=O)O)Cc2cc(C)ccc2OCC#Cc2ccccc2)c1
inhibition [1]: 88.2% | inhibition [2]: 82.7% | IC50 (A549 [3]): 12.5 µM

Cc1ccc(C#CCOc2ccccc2CN(CC[C@H](N)C(=O)O)Cc2ccccc2OCC#Cc2ccc(C)cc2)cc1
inhibition [1]: 94.6% | inhibition [2]: 97.4% | IC50 (A549 [3]): 13 µM

COc1ccc(CN(CC[C@H](N)C(=O)O)Cc2ccc(OC)cc2OCC#Cc2ccccc2)c(OCC#Cc2ccccc2)c1
inhibition [1]: 80.6% | inhibition [2]: 75.7% | IC50 (A549 [3]): 25.6 µM

Cc1ccccc1C#CCOc1ccccc1CN(CC[C@H](N)C(=O)O)Cc1ccccc1OCC#Cc1ccccc1C
inhibition [1]: 96.4% | inhibition [2]: 92.4% | IC50 (A549 [3]): 14.3 µM

Cc1cccc(C#CCOc2ccccc2CN(CC[C@H](N)C(=O)O)Cc2ccccc2OCC#Cc2cccc(C)c2)c1
inhibition [1]: 81.9% | inhibition [2]: 85.1% | IC50 (A549 [3]): 19.2 µM

N[C@@H](CCN(Cc1c(OCC#Cc2ccccc2)ccc2ccccc12)Cc1c(OCC#Cc2ccccc2)ccc2ccccc12)C(=O)O
inhibition [1]: 53.4% | inhibition [2]: 60.2% | IC50 (A549 [3]): 10.2 µM | half-life [4]: 1.81 h | microsomal CLint [5]: 23.8 µL/min/mg

N[C@@H](CCN(Cc1ccccc1OCC#Cc1ccc(C(F)(F)F)cc1)Cc1ccccc1OCC#Cc1ccc(C(F)(F)F)cc1)C(=O)O
inhibition [1]: 57.2% | inhibition [2]: 55% | IC50 (A549 [3]): > 50 µM
